The results in this text go back to ChEMBL document CHEMBL3132769, “Fragment growing to retain or alter the selectivity of anchored kinase hinge-binding fragments” (Medchemcomm, 2014).

Experiment [1] concerns the target Dual specificity tyrosine-phosphorylation-regulated kinase 1A (Rattus norvegicus) (UniProt Q63470). The experiment can be described thus: Inhibition of rat full length DYRK1a expressed in Escherichia coli cell assessed as substrate phosphorylation using fluorescence-labelled peptides as substrate at 0.1 uM after 90 mins by microfluidic peptide phosphorylation assay.

The target of experiment [2] is Tyrosine-protein kinase ABL2 (Homo sapiens) (UniProt P42684). The experiment can be described thus: Inhibition of human truncated Arg expressed in baculovirus assessed as substrate phosphorylation using fluorescence-labelled peptides as substrate at 420 uM after 90 mins by microfluidic peptide phosphorylation assay.
Tyrosine-protein kinase ABL2 (Homo sapiens), sequence (P42684 whole entry, the tested form may be a part): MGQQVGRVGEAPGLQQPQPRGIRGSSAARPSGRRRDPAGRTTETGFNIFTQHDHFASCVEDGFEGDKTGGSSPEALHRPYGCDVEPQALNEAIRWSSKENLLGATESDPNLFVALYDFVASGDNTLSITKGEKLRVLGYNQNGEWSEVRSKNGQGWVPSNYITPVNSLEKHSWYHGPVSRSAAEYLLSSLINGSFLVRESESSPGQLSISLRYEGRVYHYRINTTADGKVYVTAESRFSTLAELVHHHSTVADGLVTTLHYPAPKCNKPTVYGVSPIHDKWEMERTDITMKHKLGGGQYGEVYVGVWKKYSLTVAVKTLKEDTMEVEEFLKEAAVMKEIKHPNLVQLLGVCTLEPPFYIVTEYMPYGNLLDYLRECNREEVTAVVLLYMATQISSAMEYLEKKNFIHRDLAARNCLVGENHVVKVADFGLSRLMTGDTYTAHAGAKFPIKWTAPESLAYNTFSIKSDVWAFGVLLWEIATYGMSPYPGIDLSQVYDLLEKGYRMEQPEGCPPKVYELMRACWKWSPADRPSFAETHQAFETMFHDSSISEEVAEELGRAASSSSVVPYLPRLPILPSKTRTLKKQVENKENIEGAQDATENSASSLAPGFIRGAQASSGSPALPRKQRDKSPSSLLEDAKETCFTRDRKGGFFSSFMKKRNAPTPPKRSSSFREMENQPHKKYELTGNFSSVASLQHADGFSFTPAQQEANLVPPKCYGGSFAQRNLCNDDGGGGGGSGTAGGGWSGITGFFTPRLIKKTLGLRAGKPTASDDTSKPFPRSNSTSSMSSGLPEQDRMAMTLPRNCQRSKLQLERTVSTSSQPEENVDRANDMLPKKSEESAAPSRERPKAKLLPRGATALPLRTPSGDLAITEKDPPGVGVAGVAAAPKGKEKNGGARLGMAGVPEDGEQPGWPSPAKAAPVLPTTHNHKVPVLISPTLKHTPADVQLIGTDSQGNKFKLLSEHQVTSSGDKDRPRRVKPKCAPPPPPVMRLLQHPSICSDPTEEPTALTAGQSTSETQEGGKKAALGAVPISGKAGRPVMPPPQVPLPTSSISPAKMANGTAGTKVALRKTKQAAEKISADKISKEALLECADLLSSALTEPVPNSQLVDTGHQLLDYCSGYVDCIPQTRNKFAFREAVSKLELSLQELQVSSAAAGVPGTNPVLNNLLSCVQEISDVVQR
Experiment [3] addresses T1, Serine/threonine-protein kinase Nek2 (Homo sapiens) (UniProt P51955).
T1 sequence (whole entry): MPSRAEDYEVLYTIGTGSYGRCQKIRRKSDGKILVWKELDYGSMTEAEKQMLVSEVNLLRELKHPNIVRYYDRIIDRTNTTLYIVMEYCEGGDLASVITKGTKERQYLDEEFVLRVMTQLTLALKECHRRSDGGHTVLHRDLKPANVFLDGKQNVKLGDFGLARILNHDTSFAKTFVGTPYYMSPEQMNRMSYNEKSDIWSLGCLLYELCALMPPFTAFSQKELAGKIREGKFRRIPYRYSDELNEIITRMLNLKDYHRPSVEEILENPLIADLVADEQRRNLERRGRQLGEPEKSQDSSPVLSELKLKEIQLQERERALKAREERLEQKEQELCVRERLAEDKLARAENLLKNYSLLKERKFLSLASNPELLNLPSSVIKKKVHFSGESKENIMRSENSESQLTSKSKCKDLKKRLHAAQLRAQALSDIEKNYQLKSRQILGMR
The experiment can be described thus: Inhibition of human full length NEK2 expressed in baculovirus assessed as substrate phosphorylation using fluorescence-labelled peptides as substrate at […] after 90 mins by microfluidic peptide phosphorylation assay.

Experiment [4] has as its target T2, Serine/threonine-protein kinase DCLK2 (Homo sapiens) (UniProt Q8N568).
T2 sequence (whole entry): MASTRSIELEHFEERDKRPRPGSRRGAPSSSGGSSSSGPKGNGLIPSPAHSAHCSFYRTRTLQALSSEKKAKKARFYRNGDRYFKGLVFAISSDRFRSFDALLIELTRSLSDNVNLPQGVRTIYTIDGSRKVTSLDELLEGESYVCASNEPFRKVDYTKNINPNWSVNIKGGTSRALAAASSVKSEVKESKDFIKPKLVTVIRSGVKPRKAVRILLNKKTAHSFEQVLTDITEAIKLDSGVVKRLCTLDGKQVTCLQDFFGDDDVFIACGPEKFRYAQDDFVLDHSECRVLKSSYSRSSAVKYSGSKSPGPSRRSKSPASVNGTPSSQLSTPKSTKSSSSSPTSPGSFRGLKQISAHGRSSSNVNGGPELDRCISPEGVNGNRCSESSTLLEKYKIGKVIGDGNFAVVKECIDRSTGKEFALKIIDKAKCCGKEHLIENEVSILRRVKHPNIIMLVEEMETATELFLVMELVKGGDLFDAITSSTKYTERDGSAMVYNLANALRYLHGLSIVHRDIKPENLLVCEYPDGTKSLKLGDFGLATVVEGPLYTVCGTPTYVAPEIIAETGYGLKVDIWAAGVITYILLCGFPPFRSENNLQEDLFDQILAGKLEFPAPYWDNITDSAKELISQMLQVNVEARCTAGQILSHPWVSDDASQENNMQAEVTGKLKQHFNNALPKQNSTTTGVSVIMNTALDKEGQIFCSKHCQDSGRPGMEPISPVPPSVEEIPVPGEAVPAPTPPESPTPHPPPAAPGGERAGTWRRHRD
Kind of experiment: Inhibition of human full length DCAMKL2 expressed in baculovirus assessed as substrate phosphorylation using fluorescence-labelled peptides as substrate at 1000 uM after 90 mins by microfluidic peptide phosphorylation assay.

In experiment [5] the target is Proto-oncogene tyrosine-protein kinase Src (Homo sapiens) (UniProt P12931). Kind of experiment: Inhibition of human full length SRC expressed in baculovirus assessed as substrate phosphorylation using fluorescence-labelled peptides as substrate at 1000 uM after 90 mins by microfluidic peptide phosphorylation assay.
Proto-oncogene tyrosine-protein kinase Src (Homo sapiens), sequence (P12931 2-536 limits assumed): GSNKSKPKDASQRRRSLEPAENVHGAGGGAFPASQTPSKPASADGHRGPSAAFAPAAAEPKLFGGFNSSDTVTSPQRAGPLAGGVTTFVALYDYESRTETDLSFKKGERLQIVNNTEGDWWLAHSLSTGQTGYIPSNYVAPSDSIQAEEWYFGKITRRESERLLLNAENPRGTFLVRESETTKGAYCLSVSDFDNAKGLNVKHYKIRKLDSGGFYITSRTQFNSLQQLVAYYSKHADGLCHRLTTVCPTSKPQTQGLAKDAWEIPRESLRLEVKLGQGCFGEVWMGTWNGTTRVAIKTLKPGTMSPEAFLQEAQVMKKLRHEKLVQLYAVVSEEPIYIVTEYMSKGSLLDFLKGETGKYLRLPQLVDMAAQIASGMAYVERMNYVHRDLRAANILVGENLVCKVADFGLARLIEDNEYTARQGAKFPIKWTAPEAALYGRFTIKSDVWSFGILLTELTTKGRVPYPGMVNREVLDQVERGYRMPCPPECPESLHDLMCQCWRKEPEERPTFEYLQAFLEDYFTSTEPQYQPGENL
In experiment [6] the target is RAF proto-oncogene serine/threonine-protein kinase (Homo sapiens) (UniProt P04049). The experiment can be described thus: Inhibition of human truncated c-Raf expressed in baculovirus assessed as substrate phosphorylation using fluorescence-labelled peptides as substrate at 0.06 uM after 90 mins by microfluidic peptide phosphorylation assay.
RAF proto-oncogene serine/threonine-protein kinase (Homo sapiens), sequence (P04049 whole entry, the tested form may be a part): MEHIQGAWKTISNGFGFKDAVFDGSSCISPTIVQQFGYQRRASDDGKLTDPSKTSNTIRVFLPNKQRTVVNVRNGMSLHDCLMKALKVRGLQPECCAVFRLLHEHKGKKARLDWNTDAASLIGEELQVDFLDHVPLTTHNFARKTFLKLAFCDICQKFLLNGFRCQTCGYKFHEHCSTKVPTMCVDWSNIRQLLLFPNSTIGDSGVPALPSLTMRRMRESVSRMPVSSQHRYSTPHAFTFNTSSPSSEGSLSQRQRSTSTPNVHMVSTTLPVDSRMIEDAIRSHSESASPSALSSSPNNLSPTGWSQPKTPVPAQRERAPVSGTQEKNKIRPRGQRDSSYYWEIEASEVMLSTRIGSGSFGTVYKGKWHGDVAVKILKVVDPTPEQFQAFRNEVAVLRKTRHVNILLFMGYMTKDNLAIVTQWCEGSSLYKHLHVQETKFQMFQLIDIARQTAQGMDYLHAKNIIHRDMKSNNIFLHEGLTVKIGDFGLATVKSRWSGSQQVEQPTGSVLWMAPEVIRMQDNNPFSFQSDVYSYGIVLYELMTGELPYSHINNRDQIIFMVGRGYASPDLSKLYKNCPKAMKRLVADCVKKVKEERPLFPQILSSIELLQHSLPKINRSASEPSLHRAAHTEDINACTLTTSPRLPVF
For experiment [7], the target named is T3, Testis-specific serine/threonine-protein kinase 1 (Homo sapiens) (UniProt Q9BXA7).
T3 sequence (whole entry): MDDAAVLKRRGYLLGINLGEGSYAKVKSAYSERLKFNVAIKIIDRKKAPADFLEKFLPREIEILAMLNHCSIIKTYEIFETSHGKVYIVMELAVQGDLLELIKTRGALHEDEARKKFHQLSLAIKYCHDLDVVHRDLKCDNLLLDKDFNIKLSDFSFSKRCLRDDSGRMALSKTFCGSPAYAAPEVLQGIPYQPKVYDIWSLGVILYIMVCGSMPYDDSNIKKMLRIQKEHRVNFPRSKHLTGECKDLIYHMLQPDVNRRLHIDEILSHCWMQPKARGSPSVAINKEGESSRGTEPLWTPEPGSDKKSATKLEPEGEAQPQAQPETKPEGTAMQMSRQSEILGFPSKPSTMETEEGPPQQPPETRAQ
The experiment can be described thus: Inhibition of human full length TSSK1 expressed in baculovirus assessed as substrate phosphorylation using fluorescence-labelled peptides as substrate at 0.06 uM after 90 mins by microfluidic peptide phosphorylation assay.

For experiment [8], the target named is Protein kinase C theta type (Homo sapiens) (UniProt Q04759). Kind of experiment: Inhibition of human truncated PKC theta expressed in baculovirus assessed as substrate phosphorylation using fluorescence-labelled peptides as substrate at 0.06 uM after 90 mins by microfluidic peptide phosphorylation assay.
Protein kinase C theta type (Homo sapiens), sequence (Q04759 whole entry, looked up, the tested form may be a part): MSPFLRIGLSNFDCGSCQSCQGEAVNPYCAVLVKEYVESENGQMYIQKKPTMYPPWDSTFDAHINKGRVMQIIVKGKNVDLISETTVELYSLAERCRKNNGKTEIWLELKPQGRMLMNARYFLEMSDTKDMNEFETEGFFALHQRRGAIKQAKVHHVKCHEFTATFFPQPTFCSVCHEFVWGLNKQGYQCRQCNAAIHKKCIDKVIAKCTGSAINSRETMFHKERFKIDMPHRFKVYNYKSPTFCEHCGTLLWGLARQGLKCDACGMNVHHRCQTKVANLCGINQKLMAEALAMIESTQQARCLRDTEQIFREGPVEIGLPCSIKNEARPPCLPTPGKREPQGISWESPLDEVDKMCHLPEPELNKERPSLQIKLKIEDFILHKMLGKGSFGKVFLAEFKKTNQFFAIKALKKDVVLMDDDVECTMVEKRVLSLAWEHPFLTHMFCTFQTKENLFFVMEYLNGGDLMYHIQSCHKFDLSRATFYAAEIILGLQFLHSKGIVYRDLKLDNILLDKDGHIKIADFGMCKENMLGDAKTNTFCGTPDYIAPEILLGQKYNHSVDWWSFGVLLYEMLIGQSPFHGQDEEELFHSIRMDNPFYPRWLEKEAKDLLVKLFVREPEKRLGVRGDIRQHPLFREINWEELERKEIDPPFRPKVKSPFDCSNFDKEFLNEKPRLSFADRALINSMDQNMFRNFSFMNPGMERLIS
The target in experiment [9] is Dual specificity tyrosine-phosphorylation-regulated kinase 1A (Rattus norvegicus) (UniProt Q63470). The experiment can be described thus: Inhibition of rat full length DYRK1a expressed in Escherichia coli cell assessed as substrate phosphorylation using fluorescence-labelled peptides as substrate at 0.06 uM after 90 mins by microfluidic peptide phosphorylation assay.

For the next experiment, the species on record is Homo sapiens. The experiment can be described thus: Inhibition of human P70S6K catalytic domain expressed in baculovirus assessed as substrate phosphorylation using fluorescence-labelled peptides as substrate at 2 uM after 90 mins by microfluidic peptide phosphorylation assay.
For experiment [10], the target named is Calcium/calmodulin-dependent protein kinase type II subunit gamma (Homo sapiens) (UniProt Q13555). Kind of experiment: Inhibition of human CAMK2 gamma catalytic domain expressed in baculovirus assessed as substrate phosphorylation using fluorescence-labelled peptides as substrate at 2 uM after 90 mins by microfluidic peptide phosphorylation assay.
Calcium/calmodulin-dependent protein kinase type II subunit gamma (Homo sapiens), sequence (Q13555 whole entry, the tested form may be a part): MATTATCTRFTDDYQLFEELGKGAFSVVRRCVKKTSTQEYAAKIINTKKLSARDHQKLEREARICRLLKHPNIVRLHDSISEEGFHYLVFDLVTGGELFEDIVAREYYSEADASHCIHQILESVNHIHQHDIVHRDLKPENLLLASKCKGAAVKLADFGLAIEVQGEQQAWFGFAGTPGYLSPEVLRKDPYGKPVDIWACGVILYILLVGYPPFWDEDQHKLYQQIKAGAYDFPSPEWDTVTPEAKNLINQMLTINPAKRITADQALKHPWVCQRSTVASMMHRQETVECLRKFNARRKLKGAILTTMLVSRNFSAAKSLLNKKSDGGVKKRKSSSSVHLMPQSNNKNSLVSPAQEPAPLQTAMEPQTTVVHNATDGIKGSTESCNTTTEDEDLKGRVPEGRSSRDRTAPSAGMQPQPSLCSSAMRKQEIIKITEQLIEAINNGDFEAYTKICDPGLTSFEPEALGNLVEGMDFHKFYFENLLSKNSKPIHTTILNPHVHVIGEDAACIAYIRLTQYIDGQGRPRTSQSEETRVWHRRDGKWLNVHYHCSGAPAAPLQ

Structures are written as SMILES.

Take `C[C@H](CN(C)C)Oc1nc(Nc2cc3cccc(Cl)c3cn2)cnc1C#N`: the inhibition (commonly the share of the control response that was lost under treatment) in experiment [1] was found to be 3.5%. For the molecule `c1nc(N2CCOCC2)c2nc[nH]c2n1`, the inhibition in experiment [2] is 54.5%.

Consider `COC(=O)c1cnc(Nc2cnc(C#N)cn2)cc1NCC1CCNCC1`, for which the inhibition in experiment [3] is 0.5%. Take `c1cnc2[nH]ccc2c1`: the inhibition in experiment [4] was 15%; in experiment [5], 28.5%.

On to `NC1(Cc2ccc(Cl)cc2)CCN(c2ncnc3[nH]ccc23)CC1`, for which the inhibition in [6] was 3.5%; in [7] it was 0%; in experiment [8] it was 4.5%; in experiment [9], 0%. Consider `NC1CCN(c2ncnc3[nH]ccc23)CC1`, for which the inhibition in the experiment filed under Homo sapiens came to 3.5%; in [10] it was 0%.
